T1: Brainiac β1-3-N-acetylglucosaminyltransferase (Drosophila melanogaster, UniProt Q24157)
T1 construct: The full coding region of Brainiac was prepared by PCR using genomic DNA; made in house; host or cells: High Five insect cells (baculovirus vector pVL1393); microsomal fractions
T1 sequence (Q24157 1-325): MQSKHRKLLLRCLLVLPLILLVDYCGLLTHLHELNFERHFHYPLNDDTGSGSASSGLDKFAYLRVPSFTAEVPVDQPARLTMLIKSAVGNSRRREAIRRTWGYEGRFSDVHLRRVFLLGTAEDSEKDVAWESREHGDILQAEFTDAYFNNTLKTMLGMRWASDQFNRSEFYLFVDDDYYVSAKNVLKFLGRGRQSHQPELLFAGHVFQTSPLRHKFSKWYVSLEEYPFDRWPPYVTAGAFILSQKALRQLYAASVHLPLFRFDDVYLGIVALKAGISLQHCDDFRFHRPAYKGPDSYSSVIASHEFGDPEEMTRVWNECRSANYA


What was measured:
[1] = target: T1, Brainiac β1-3-N-acetylglucosaminyltransferase; assay: Substrate specificities of Brainiac β1-3-N-acetylglucosaminyltransferase (acceptor panel, microsomal preparations); type: biochemical; conditions: microsomes of pVL-Brainiac infected High Five cells, background of irrelevant construct subtracted, donor UDP-GlcNAc
[2] = target: T1, Brainiac β1-3-N-acetylglucosaminyltransferase; assay: as above; type: biochemical; conditions: panel of mono- and disaccharides with aglycons and oligosaccharides
Procedure: Fringe-Myc and Fringe-NNN-myc were cloned into baculovirus vector pVL1393 (Pharmingen) and expressed in High Five™ cells. Microsomal fractions were prepared by hypotonic lysis ultracentrifugation and solubilised 1:2 (vol/vol) in 20 mM Cacodylate pH 6.5, 1% Triton-CF54, 5 MM MnCl2 containing Leupeptin and Aprotinin as described previously (Amado et al., 1998). For glycosyltransferase assays, 5 μl of this suspension were added to a total of 50 μl reaction mixture containing 25 mM Cacodylate pH 6.5, 0.25% Triton-CF54, 5 mM MnCl2, 500 mM free sugar, 100 μM UDP-^14C-sugar (1280-2000 cpm/nmol). Reactions were incubated at 37° C. for 45-60 minutes, followed by Dowex-1 anion exchange chromatography and scintillation counting of 50% of the flow-through.
Brainiac-full was cloned into baculovirus vector pVL1393 (Pharmingen) and expressed in High Five cells. […] Initial analysis of activity was done with five monosaccharides and four donor sugar nucleotides as described in FIG. 5 for Fringe. Assays with the acceptors listed in Table 1 were performed as described for Fringe except no additional detergent was added. Reactions with glycolipid substrates were performed in the presence of 0.5% N-octylglucoside in 50 ul reaction volume containing 10 μg glycolipid.
In the latter case the acceptor sugar was not determined.

[3] = test system: Notch activation in the wing imaginal disc; assay: Ectopic expression under patched GAL4 control in wing imaginal disc, Wingless expression; type: in vivo, Drosophila; conditions: expressed under patched GAL4 control
Description: (e), (f), (g) Wing imaginal discs labelled to visualise Wingless protein (left panel) and the myc epitope tag (right panel). (e) patched^GAL4/+wing disc. Wingless is expressed in a continuous stripe along the DV boundary. (f) patched^GAL4/UAS-Fringe-GalNT3-myc. Golgi-tethered Fringe-GalNT3-myc expression in the patched^GAL4 stripe is shown in the right-hand panel. The endogenous Wingless stripe is interrupted where the Golgi-tethered Fringe stripe crosses the DV boundary (left panel). At the anterior-posterior compartment boundary the Golgi-tethered Fringe stripe abuts the endogenous Wingless stripe and induces ectopic expression of Wingless in the ventral compartment. This pattern is identical to that reported for ectopic expression of wild-type (secreted) Fringe shown in panel (g) for the Golgi-tethered Fringe D: dorsal compartment. V ventral compartment. Posterior is to the right. […] These effects precisely match those caused by expression of wild-type Fringe (not shown; see Panin et al., 1997; Kim et al., 1995). […] Cells were transfected to express Notch, wild-type Fringe-wt-myc, or mutant Fringe-NNN-myc as indicated. Cells transfected with empty vector were used as a control. Fringe-NNN-Myc has no activity in the binding assay, despite being expressed at higher levels than Fringe-wt-Myc.

Notch = target: T2, Notch (Drosophila melanogaster, UniProt P07207); assay: Delta-AP binding to Notch transfected S2 cells; type: cell-based; conditions: co-expressed with Notch in S2 cells
T2 construct: expressed in transfected cells; host or cells: Drosophila Schneider S2 cells, transient transfection, pRmHa3
Procedure: Cell culture and Binding assays: cDNAs for expression in Schneider S2 cells were cloned into pRmHa3. Cells were transiently transfected by the CaPO4 method using 6-8 μg of DNA per well in 6 well plates. Expression was induced by addition of 0.7 mM CuSO4 for 2 days. Conditioned medium was collected from Notch-AP and Delta-AP transfected cells 2 days after induction. AP activity was adjusted to normalise activity levels of Notch-AP or Delta-AP expressed with or without Fringe. Binding was performed as described in Cheng and Flanagan, 1994. In brief, AP-containing supernatants were supplemented with 0.1% NaN3, and incubated 90 min at room temperature. Cells were washed 5 times in HBSS containing 0.05% BSA and 0.1% azide, and lysed in 10 mM Tris pH 8, 1% Triton-X100. Endogenous AP was inactivated by heat treatment for 10 min 60° C. and the lysates clarified by centrifugation. AP activity was measured in 1M Diethanolamine, 1 mM MgCl2, 5 mM para-nitrophenyl phosphate. Bound AP activity was quantified in 96 well plates using a microplate reader and Micromanager software (BioRad). An additional replicate of each transfection was prepared for immunoblot analysis. Lysates were prepared separately for Immunoblot analysis to allow inclusion of protease inhibitors which are not used in the binding assay. To measure interaction of Delta-AP with transiently transfected S2 cells, bound AP activity was quantified in an enzymatic colour reaction. Cells transfected with empty vector were used as a control. […] AP activity is shown in mOD units/minute in cell extracts (replicate experiments are shown in this figure). In this experiment Fringe stimulated binding by over 50 fold. […] However, the assay allows measurement of Fringe-dependent stimulation of Delta-AP binding.

T2 sequence (P07207 53-2703): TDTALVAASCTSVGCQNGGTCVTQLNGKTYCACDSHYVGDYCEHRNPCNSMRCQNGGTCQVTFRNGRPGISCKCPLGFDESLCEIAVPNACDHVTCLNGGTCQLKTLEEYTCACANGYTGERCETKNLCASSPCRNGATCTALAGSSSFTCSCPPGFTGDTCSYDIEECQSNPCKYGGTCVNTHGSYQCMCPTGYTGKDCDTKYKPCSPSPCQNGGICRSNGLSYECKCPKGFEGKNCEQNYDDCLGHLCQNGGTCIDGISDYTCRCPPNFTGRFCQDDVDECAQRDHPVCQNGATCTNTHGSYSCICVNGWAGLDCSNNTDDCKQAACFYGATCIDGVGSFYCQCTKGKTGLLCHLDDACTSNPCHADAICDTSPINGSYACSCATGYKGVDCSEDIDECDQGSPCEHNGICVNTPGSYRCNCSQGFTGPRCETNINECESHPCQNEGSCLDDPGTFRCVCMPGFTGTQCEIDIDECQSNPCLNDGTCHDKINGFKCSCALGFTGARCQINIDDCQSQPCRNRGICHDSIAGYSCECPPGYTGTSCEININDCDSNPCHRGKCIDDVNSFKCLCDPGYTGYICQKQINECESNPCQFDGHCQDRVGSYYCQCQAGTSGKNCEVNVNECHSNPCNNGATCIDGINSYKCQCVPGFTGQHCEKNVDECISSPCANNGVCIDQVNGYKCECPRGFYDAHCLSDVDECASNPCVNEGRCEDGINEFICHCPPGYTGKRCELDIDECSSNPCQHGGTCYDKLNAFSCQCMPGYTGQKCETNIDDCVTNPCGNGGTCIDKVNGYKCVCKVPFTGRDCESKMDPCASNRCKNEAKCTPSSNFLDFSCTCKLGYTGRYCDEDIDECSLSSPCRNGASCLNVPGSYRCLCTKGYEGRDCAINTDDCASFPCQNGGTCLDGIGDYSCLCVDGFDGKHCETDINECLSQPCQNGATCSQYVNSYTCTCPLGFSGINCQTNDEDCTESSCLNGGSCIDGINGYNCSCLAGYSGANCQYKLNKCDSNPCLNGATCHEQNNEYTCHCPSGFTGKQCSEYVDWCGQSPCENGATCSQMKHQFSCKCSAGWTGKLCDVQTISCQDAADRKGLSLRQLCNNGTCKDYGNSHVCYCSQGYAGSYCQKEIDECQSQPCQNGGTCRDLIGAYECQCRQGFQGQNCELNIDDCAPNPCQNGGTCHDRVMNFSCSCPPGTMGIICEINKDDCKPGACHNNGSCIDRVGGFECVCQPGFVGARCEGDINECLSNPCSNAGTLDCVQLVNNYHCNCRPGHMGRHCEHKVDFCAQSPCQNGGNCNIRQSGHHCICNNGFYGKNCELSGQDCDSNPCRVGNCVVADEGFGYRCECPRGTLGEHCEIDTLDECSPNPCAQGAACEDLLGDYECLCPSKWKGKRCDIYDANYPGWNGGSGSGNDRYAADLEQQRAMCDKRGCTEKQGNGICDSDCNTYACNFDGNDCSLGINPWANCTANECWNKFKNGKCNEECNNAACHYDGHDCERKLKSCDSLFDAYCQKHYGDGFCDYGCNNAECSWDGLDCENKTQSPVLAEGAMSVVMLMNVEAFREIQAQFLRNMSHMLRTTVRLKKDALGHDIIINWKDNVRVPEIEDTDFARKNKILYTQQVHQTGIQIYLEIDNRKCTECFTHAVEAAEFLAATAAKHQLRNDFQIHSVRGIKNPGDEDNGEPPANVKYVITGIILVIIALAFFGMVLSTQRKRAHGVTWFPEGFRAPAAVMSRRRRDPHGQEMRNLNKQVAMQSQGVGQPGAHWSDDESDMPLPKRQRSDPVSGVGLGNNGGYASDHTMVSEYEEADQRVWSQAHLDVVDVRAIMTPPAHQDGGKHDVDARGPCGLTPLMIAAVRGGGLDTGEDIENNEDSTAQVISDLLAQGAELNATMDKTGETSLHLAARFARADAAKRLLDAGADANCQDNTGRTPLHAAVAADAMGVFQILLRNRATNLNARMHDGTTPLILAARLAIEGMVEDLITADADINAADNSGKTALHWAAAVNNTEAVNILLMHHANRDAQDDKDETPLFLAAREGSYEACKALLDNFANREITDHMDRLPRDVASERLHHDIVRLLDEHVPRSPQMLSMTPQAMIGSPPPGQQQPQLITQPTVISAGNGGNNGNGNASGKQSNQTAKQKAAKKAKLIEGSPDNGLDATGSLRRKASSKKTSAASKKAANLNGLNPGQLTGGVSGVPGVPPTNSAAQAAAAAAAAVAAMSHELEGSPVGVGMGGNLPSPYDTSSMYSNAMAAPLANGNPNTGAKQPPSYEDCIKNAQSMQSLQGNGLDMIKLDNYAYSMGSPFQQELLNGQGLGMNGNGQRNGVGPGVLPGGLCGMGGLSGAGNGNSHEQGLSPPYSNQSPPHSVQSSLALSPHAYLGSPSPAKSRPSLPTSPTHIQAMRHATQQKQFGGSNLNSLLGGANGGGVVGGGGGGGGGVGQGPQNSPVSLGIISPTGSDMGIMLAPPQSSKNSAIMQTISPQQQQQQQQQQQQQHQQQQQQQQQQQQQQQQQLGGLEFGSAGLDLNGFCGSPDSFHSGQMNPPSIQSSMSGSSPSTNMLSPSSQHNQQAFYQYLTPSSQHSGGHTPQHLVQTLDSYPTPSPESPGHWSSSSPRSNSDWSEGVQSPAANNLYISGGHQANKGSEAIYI

| Molecule | Brainiac activity with substrate ([1]; substrate 2 mM) | Brainiac activity with substrate ([1]; substrate 20 mM) | Acceptor for Brainiac, in words (detailed analysis) [2] | Effect on Wingless expression / Notch activation in wing disc, in words [3] | Effect on Delta-AP binding, in words (Notch) | Effect on Delta-AP binding, in words (Notch; listed as Fringe-NNN-Myc) |
| --- | --- | --- | --- | --- | --- | --- |
| OC[C@H]1OC(O)[C@H](O)[C@@H](O)[C@H]1O (stereo partly drawn) [D-Gal] | 0.00 nmol/h/mg | 0.00 nmol/h/mg | not found to be acceptors | – | – | – |
| Fringe-NNN: Fringe-myc with amino acids D236, 237 and 238 converted to asparagine residues (protein, UniProt Q24342 1-412, looked up, variant D236N D237N D238N, C-terminal myc tag, Fringe-myc with amino acids D236, 237 and 238 converted to asparagine residues) Fringe glycosyltransferase: MMSLTVLSPPQRFKRILQAMMLAVAVVYMTLLLYQSAYGYPGIQVPHSQVDALASEAVTTHRDQLLQDYVQSSTPTQPGAGAPAASPTTVIIRKDIRSFNFSDIEVSERPTATLLTELARRSRNGELLRDLSQRAVTATPQPPVTELDDIFISVKTTKNYHDTRLALIIKTWFQLARDQTWFFTDTDDHYYQEKTKGHLINTKCSQGHFRKALCCKMSAELDVFLESGKKWFCHFNNNNYVNVPRLVKLLDEYSPSVDWYLGKPSISSPLEIHLDSKNTTTNKKITFWFATGGAGFCLSRALTLKMLPIAGGGKFISIGDKIRFPDDVTMGFIIEHLLKVPLTVVDNFHSHLEPMEFIRQDTFQDQVSFSYAHMKNQWNVIKVDGFDMKTDPKRFYSLHCQLFPYFSFCPPR | – | – | – | did not cause Notch activation in the ventral compartment | did not increase Delta-AP binding above background levels | no activity |
